# Measurements: ChEMBL document CHEMBL1221203, “Modern synthetic efforts toward biologically active terpenes” (Nat Chem Biol, 2007)
# Tested on: Human immunodeficiency virus
# Assay: Antiviral activity against HIV replication in human H9 cells
# Type: functional, organism-based
# Details: Human immunodeficiency virus 1, H9
structure (smiles),measurement,value
C[C@]12CCC[C@]3(C(=O)OC1)[C@@H]2CC[C@@]12C[C@@H](CC[C@H]13)[C@](C)(O)C2 [NEOTRIPTERIFORDIN],EC50,25 nM
